Laboratory results as given in article PMC12564265, “Navigating the Deep Eutectic Solvent Landscape: Experimental and Machine Learning Solubility Explorations of Syringic, p-Coumaric, and Caffeic Acids” (International Journal of Molecular Sciences, 2025).

Assay: Shake-flask solubility with spectrophotometric measurement in aqueous DES mixtures
Type: physicochemical
Settings: for Increase in the solubility compared to the neat DES: 25 °C
Method: In order to determine the solubility of the three studied phenolic acids in deep eutectic solvents, a very well-established shake-flask method coupled with spectrophotometric measurements was utilized. The initial procedure involved the preparation of various DESs, which was conducted by mixing their HBA and HBD counterparts in a glass vessel and heating the composition until the formation of a transparent, uniform liquid. […] For additional measurements, the DESs were mixed with water in varying proportions, creating aqueous DES systems. Saturated solutions of CAF, SYR, and COU were obtained by adding excess amounts of these compounds to test tubes containing either a neat deep eutectic solvent or its aqueous solution. Such samples were placed in the Orbital Shaker Incubator ES-20/60 from Biosan (Riga, Latvia) and heated for 24 h at 25 °C, 30 °C, 35 °C, and 40 °C (±0.1 °C) with simultaneous mixing at 60 rpm. Before measurements, the samples were filtered using a PTFE syringe filter from Qpore (Dallas, TX, USA) with a 0.22 μm pore size. In order to avoid possible precipitation of the saturated solutions at decreased temperatures, the test tubes, syringes, pipette tips, and filters were kept at a temperature identical to that of the samples. The spectrophotometric measurements required the preparation of calibration curves for the three APIs. This involved the preparation of a stock solution of each compound in methanol, which was later successfully diluted, and the obtained solutions of varying concentrations were measured using an A360 spectrophotometer from AOE Instruments (Shanghai, China). The wavelength range was set to 200-500 nm, and the resolution was 1 nm. The analytical wavelengths were determined to be 324 nm for caffeic acid, 273 nm for syringic acid, and 308 nm for p-coumaric acid. The final regression equations, obtained after averaging three distinct sets of measurements, are collected in Table 2 together with determination coefficients and limits of detection (LOD) and quantification (LOQ) for the calibration curves. The measurements of the samples were conducted with the same spectrophotometer and identical settings. Methanol was used for the dilution of the samples so that they could remain within the linearity range of the method. Complete spectra of the samples were recorded, but for the solubility determination, the absorbance values at a specific analytical wavelength were considered. These values were combined with the corresponding regression equations of the calibration curves and served for the calculation of the concentration of the three phenolic acids in the studied samples. The densities of such samples were also measured, and for this task 1 mL of each sample was weighed to a precision of 0.1 mg using an AS 110 R2.PLUS analytical balance from […] (Radom, Poland). The obtained densities enabled the calculation of mole fractions of CAF, SYR, and COU dissolved in the studied DESs. For each considered system, three distinct measurements were conducted, and the results were averaged.

Question: For `COc1cc(C(=O)O)cc(OC)c1O` [syringic acid, 4-hydroxy-3,5-dimethoxybenzoic acid], which Mole fraction solubility (Bet – TEG 1:2 + water, x*DES 0.9, 30°C) is on record?
Answer: Its Mole fraction solubility is 0.0551±0.0005 mole fraction.

Question: And the Mole fraction solubility (Bet – TEG 1:2 + water, x*DES 0.9, 35°C)?
Answer: The Mole fraction solubility was 0.0682±0.0014 mole fraction.

Question: What about the Mole fraction solubility (Bet – TEG 1:2 + water, x*DES 0.9, 40°C) of the same molecule?
Answer: The Mole fraction solubility was 0.0796±0.0008 mole fraction.

Question: And the Mole fraction solubility (Bet – TEG 1:2, x*DES 1.0 (neat DES), 25°C)?
Answer: Its Mole fraction solubility is 0.0474±0.0003 mole fraction.

Question: What about the Mole fraction solubility (Bet – TEG 1:2, x*DES 1.0 (neat DES), 30°C) of the same molecule?
Answer: The Mole fraction solubility was 0.0541±0.0004 mole fraction.

Question: And the Mole fraction solubility (Bet – TEG 1:2, x*DES 1.0 (neat DES), 35°C)?
Answer: Its Mole fraction solubility is 0.0657±0.0011 mole fraction.

Question: And the Mole fraction solubility (Bet – TEG 1:2, x*DES 1.0 (neat DES), 40°C)?
Answer: Its Mole fraction solubility is 0.0778±0.0009 mole fraction.

Question: And the “Increase in the solubility compared to the neat DES” value (Bet-TEG 1:2, x*DES = 0.9 (xwater = 0.1))?
Answer: Its value is 3%.

Question: What about the Mole fraction solubility (ChCl – TEG 1:2 + water, x*DES 0.1, 25°C) of the same molecule?
Answer: Its Mole fraction solubility is 0.0069±0.0001 mole fraction.

Question: And the Mole fraction solubility (ChCl – TEG 1:2 + water, x*DES 0.1, 30°C)?
Answer: The Mole fraction solubility was 0.0093±0.0001 mole fraction.

Question: What about the Mole fraction solubility (ChCl – TEG 1:2 + water, x*DES 0.1, 35°C) of the same molecule?
Answer: The Mole fraction solubility was 0.0131±0.0001 mole fraction.

Question: What about the Mole fraction solubility (ChCl – TEG 1:2 + water, x*DES 0.1, 40°C) of the same molecule?
Answer: The Mole fraction solubility was 0.0174±0.0002 mole fraction.

Question: And the Mole fraction solubility (ChCl – TEG 1:2 + water, x*DES 0.2, 25°C)?
Answer: The Mole fraction solubility was 0.0122±0.0001 mole fraction.

Question: What about the Mole fraction solubility (ChCl – TEG 1:2 + water, x*DES 0.2, 30°C) of the same molecule?
Answer: The Mole fraction solubility was 0.0158±0.0001 mole fraction.

Question: And the Mole fraction solubility (ChCl – TEG 1:2 + water, x*DES 0.2, 35°C)?
Answer: Its Mole fraction solubility is 0.0218±0.0001 mole fraction.

Question: What about the Mole fraction solubility (ChCl – TEG 1:2 + water, x*DES 0.2, 40°C) of the same molecule?
Answer: Its Mole fraction solubility is 0.0305±0.0002 mole fraction.

Question: What about the Mole fraction solubility (ChCl – TEG 1:2 + water, x*DES 0.3, 25°C) of the same molecule?
Answer: Its Mole fraction solubility is 0.0186±0.0001 mole fraction.

Question: What about the Mole fraction solubility (ChCl – TEG 1:2 + water, x*DES 0.3, 30°C) of the same molecule?
Answer: Its Mole fraction solubility is 0.0249±0.0001 mole fraction.

Question: What about the Mole fraction solubility (ChCl – TEG 1:2 + water, x*DES 0.3, 35°C) of the same molecule?
Answer: The Mole fraction solubility was 0.0347±0.0003 mole fraction.

Question: And the Mole fraction solubility (ChCl – TEG 1:2 + water, x*DES 0.3, 40°C)?
Answer: Its Mole fraction solubility is 0.0476±0.0003 mole fraction.

Question: What about the Mole fraction solubility (ChCl – TEG 1:2 + water, x*DES 0.4, 25°C) of the same molecule?
Answer: The Mole fraction solubility was 0.0254±0.0003 mole fraction.

Question: What about the Mole fraction solubility (ChCl – TEG 1:2 + water, x*DES 0.4, 30°C) of the same molecule?
Answer: Its Mole fraction solubility is 0.0347±0.0004 mole fraction.

Question: What about the Mole fraction solubility (ChCl – TEG 1:2 + water, x*DES 0.4, 35°C) of the same molecule?
Answer: The Mole fraction solubility was 0.0466±0.0004 mole fraction.

Question: And the Mole fraction solubility (ChCl – TEG 1:2 + water, x*DES 0.4, 40°C)?
Answer: The Mole fraction solubility was 0.0643±0.0006 mole fraction.

Question: And the Mole fraction solubility (ChCl – TEG 1:2 + water, x*DES 0.5, 25°C)?
Answer: The Mole fraction solubility was 0.0324±0.0002 mole fraction.

Question: What about the Mole fraction solubility (ChCl – TEG 1:2 + water, x*DES 0.5, 30°C) of the same molecule?
Answer: The Mole fraction solubility was 0.0446±0.0004 mole fraction.

Question: And the Mole fraction solubility (ChCl – TEG 1:2 + water, x*DES 0.5, 35°C)?
Answer: Its Mole fraction solubility is 0.0618±0.0006 mole fraction.

Question: What about the Mole fraction solubility (ChCl – TEG 1:2 + water, x*DES 0.5, 40°C) of the same molecule?
Answer: The Mole fraction solubility was 0.0822±0.0010 mole fraction.

Question: And the Mole fraction solubility (ChCl – TEG 1:2 + water, x*DES 0.6, 25°C)?
Answer: The Mole fraction solubility was 0.0401±0.0004 mole fraction.

Question: And the Mole fraction solubility (ChCl – TEG 1:2 + water, x*DES 0.6, 30°C)?
Answer: Its Mole fraction solubility is 0.0524±0.0005 mole fraction.

Question: And the Mole fraction solubility (ChCl – TEG 1:2 + water, x*DES 0.6, 35°C)?
Answer: The Mole fraction solubility was 0.0731±0.0007 mole fraction.

Question: What about the Mole fraction solubility (ChCl – TEG 1:2 + water, x*DES 0.6, 40°C) of the same molecule?
Answer: Its Mole fraction solubility is 0.0992±0.0012 mole fraction.

Question: What about the Mole fraction solubility (ChCl – TEG 1:2 + water, x*DES 0.7, 25°C) of the same molecule?
Answer: The Mole fraction solubility was 0.0475±0.0003 mole fraction.

Question: What about the Mole fraction solubility (ChCl – TEG 1:2 + water, x*DES 0.7, 30°C) of the same molecule?
Answer: The Mole fraction solubility was 0.0628±0.0004 mole fraction.

Question: And the Mole fraction solubility (ChCl – TEG 1:2 + water, x*DES 0.7, 35°C)?
Answer: The Mole fraction solubility was 0.0871±0.0005 mole fraction.

Question: And the Mole fraction solubility (ChCl – TEG 1:2 + water, x*DES 0.7, 40°C)?
Answer: Its Mole fraction solubility is 0.1214±0.0012 mole fraction.

Question: And the Mole fraction solubility (ChCl – TEG 1:2 + water, x*DES 0.8, 25°C)?
Answer: Its Mole fraction solubility is 0.0541±0.0003 mole fraction.

Question: And the Mole fraction solubility (ChCl – TEG 1:2 + water, x*DES 0.8, 30°C)?
Answer: The Mole fraction solubility was 0.0699±0.0006 mole fraction.

Question: And the Mole fraction solubility (ChCl – TEG 1:2 + water, x*DES 0.8, 35°C)?
Answer: The Mole fraction solubility was 0.1009±0.0006 mole fraction.

Question: And the Mole fraction solubility (ChCl – TEG 1:2 + water, x*DES 0.8, 40°C)?
Answer: Its Mole fraction solubility is 0.1351±0.0013 mole fraction.

Question: What about the Mole fraction solubility (ChCl – TEG 1:2 + water, x*DES 0.9, 25°C) of the same molecule?
Answer: Its Mole fraction solubility is 0.0550 mole fraction.

Question: And the Mole fraction solubility (ChCl – TEG 1:2 + water, x*DES 0.9, 25°C, listed as syryngic acid)?
Answer: The Mole fraction solubility was 0.0550±0.0005 mole fraction.

Question: What about the Mole fraction solubility (ChCl – TEG 1:2 + water, x*DES 0.9, 30°C) of the same molecule?
Answer: The Mole fraction solubility was 0.0718±0.0005 mole fraction.

Question: What about the Mole fraction solubility (ChCl – TEG 1:2 + water, x*DES 0.9, 35°C) of the same molecule?
Answer: Its Mole fraction solubility is 0.1018±0.0008 mole fraction.

Question: What about the Mole fraction solubility (ChCl – TEG 1:2 + water, x*DES 0.9, 40°C) of the same molecule?
Answer: The Mole fraction solubility was 0.1373±0.0011 mole fraction.

Question: What about the Mole fraction solubility (ChCl – TEG 1:2, x*DES 1.0 (neat DES), 25°C) of the same molecule?
Answer: Its Mole fraction solubility is 0.0515±0.0004 mole fraction.

Question: What about the Mole fraction solubility (ChCl – TEG 1:2, x*DES 1.0 (neat DES), 30°C) of the same molecule?
Answer: Its Mole fraction solubility is 0.0660±0.0003 mole fraction.

Question: What about the Mole fraction solubility (ChCl – TEG 1:2, x*DES 1.0 (neat DES), 35°C) of the same molecule?
Answer: The Mole fraction solubility was 0.0917±0.0006 mole fraction.

Question: What about the Mole fraction solubility (ChCl – TEG 1:2, x*DES 1.0 (neat DES), 40°C) of the same molecule?
Answer: The Mole fraction solubility was 0.1234±0.0013 mole fraction.

Question: And the “Increase in the solubility compared to the neat DES” value (ChCl-TEG 1:2, x*DES = 0.9 (xwater = 0.1))?
Answer: The value was 7%.

Question: And the “Solubility increase between 25 °C and 40 °C” value (neat DES (x*DES = 1.0) involving betaine (Bet-TEG 1:2))?
Answer: The value was 164%.

Question: And the “Solubility increase between 25 °C and 40 °C” value (neat DES (x*DES = 1.0) with choline chloride (ChCl-TEG 1:2))?
Answer: Its value is 240%.
